# Reference: US10420746B2, “Pharmaceutical composition containing Bay 11-7082, parthenolide or a combination thereof for the treatment of obesity or cardiovascular diseases” (priority 2015, dated 2019)
# Assays:
# [1] = system: human erythrocytes; assay: GSH:GSSG ratio in treated human erythrocytes; conditions: 24 hours, 0.6% hematocrit, DMSO control 125:1
# [2] = target: glucose-6-phosphate dehydrogenase (G6PDH) (Homo sapiens, UniProt P11413); assay: G6PDH enzyme activity in lysates of treated human erythrocytes; parameters: inhibition of the G6PDH activity: dose or concentration left out as unconfirmed
# Chain of glucose-6-phosphate dehydrogenase (G6PDH) (P11413 whole entry): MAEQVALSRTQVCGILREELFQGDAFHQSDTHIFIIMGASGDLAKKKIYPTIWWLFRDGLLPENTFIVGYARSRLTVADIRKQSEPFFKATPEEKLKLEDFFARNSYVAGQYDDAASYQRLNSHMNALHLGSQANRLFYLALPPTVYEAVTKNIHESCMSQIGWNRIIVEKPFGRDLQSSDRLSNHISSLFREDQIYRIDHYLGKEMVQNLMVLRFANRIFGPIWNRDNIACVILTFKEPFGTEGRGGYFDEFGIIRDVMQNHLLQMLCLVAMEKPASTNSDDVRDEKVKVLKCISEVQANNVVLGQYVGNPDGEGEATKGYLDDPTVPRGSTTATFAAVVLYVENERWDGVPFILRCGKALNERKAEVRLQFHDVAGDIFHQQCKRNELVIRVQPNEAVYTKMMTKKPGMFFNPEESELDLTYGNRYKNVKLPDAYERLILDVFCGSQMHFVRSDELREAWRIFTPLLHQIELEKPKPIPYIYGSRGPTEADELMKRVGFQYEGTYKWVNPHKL
# [3] = target: T1, glutathione reductase (GR) (Homo sapiens, UniProt P00390); assay: Glutathione reductase (GR) enzyme activity in lysates of treated human erythrocytes; conditions: for inhibition of the enzyme GR: concentration not given
# T1 sequence (P00390 1-479 isoform P00390-2): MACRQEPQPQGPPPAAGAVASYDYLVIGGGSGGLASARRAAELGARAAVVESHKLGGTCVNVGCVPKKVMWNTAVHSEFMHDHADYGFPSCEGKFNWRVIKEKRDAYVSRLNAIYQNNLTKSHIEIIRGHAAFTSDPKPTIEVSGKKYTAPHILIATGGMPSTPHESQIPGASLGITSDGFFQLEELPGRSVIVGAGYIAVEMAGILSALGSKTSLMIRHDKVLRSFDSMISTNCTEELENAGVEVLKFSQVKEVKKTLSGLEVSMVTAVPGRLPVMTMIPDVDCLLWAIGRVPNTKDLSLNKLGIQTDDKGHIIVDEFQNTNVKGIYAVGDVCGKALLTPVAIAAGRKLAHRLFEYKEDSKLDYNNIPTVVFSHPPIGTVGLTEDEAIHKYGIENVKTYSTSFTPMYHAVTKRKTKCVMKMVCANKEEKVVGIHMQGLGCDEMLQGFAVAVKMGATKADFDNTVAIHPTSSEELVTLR
SMILES,GSH:GSSG ratio ([1]; 20 μM),"inhibition of the G6PDH activity ([2]; (clinically relevant concentration), erythrocytes treated 24 hours)",inhibition of G6PDH ([2]; already in low concentrations),inhibition at 20 µM ([2]; read-out: G6PDH-inhibition),"GSR inhibition ([3]; 20 μM, erythrocytes 0.6% Hct treated 24 hours)",inhibition of the enzyme GR [3],GSH:GSSG ratio ([1]; 140 μM),inhibition at 140 µM ([2]; read-out: inhibition of G6PDH),inhibition at 140 µM ([3]; read-out: GR inhibition)
"Cc1ccc(S(=O)(=O)/C=C/C#N)cc1 [Bay 11-7082, 3-[(4-methylphenyl)sulfonyl]-(2E)-propenenitrile]",equal to 0 or approaching 0,complete inhibition,complete,100%,complete GSR inhibition,completely,,,
"COC(=O)/C=C/C(=O)OC [dimethylfumarate, (E)-2-butenedioic acid dimethyl ester]",,,,,,50%,equal to 0 or approaching 0,≥ 50%,≥ 50%
